Entries after “also recorded” stand apart in the source; their conditions may differ. Where two headings read alike, the source gives them in different places.
What was measured:
[1] = system: C57BL/6 mice; experiment: Murine CCL22 peptide vaccination, IFNγ ELISPOT on splenocytes; assay type: in vivo; conditions: 100 μg peptide s.c. in IFA/PBS once a week for 3 weeks
Procedure: Murine CCL22 peptide (TAG Copenhagen, Denmark) stocks of 10 mM (mCCL22Short) and 5 mM (mCCL22Long) were made in DMSO. Mice were vaccinated subcutaneously (s.c) on the lower back with 100 μg peptide in 1:1 (vol/vol) IFA/PBS emulsion in a total volume of 100 μl. Mice were vaccinated once a week for 3 weeks and sacrificed one week after the last vaccination.
Spleens from sacrificed mice were removed and smashed through a cell strainer ([…]) and washed with R10 media: RPMI 1640 (Gibco® by Life technologies™) with 10% FCS (Gibco® by Life technologies™). Red blood cells lysed by adding red blood cell lysis buffer for 2 min, followed by two washes with R10 with 10% fetal bovine serum.
ELISPOT was performed as described by the manufacturer's instruction. In short, 96-well MSIPN4W ELISPOT plate (Millipore) were coated with mouse IFNγ-specific capture Ab (AN18: Mabtech) in a concentration of 12 μg/ml in PBS overnight at 4° C., 8×10^5 or 4×10^5 splenocyteslwell were seeded in the plate in triplicates. To investigate IFNγ response to murine CCL22 peptides, cells were incubated with different peptides (5 μM) or R10 as control for 18-20 h at 37° C. ELISPOT was developed with mouse IFNγ-specific detection Ab (R4-6A2-biotin; Mabtech) in a concentration of 1 μg/ml in Buffer (PBS, 0.5% BSA and NaN3) for 2 h at room temperature, followed by 6 washes in PBS. […]

[2] = system: T2 cells; experiment: 51Cr-release cytotoxicity assay, peptide-pulsed T2 cells; assay type: cell-based; conditions: for T-cell avidity of pCCL223-12-specific T cells, peptide titration: effector to target ratio 3:1
Procedure: Conventional ^51Cr-release assays for CTL-mediated cytotoxicity were carried out as described elsewhere (Andersen et al., 1999). Target cells were T2-cells (ATCC), HLA-A2^+ EBV transformed B-cell line (RPM16666), AML cells (UKE-1 and THP1) colon cancer cells (SW480), melanoma cell line (FM55-M2), Breast cancer cells MDA-MB231 with or without IFN-γ (100 U/m1) addition for 2 days prior to performing cytotoxicity assay. For peptide titration cytotoxicity assay, T2 cells were used as target cells and a constant effector to target ratio of 3:1 was used for all peptide concentrations.

[3] = system: PBMCs from a melanoma patient; experiment: HLA-A2/peptide tetramer staining; assay type: cell-based, human
Procedure: (§1) The following day IL-7 and IL-12 (PeproTech, London, UK) were added. […] The day after peptide stimulation IL-2 (PeproTech, London, UK) was added. 4 DC stimulations and 1 PBMC stimulation were made in total.
HLA-A2 multimers were produced in house by using a previously described MHC peptide exchange technology (15).

[4] = system: PBMCs; experiment: Cytokine expression LUMINEX of PBMC supernatants after peptide stimulation; assay type: cell-based, human
Procedure: PBMCs from healthy donors or cancer patients were thawed and rested for 4 hours in X-VIVO 15™ (Lonza) before being set up into 24-well plates with 2×10^6 cells/well in X-Vivo medium with 5% human serum. […] Appropriate amount of DMSO was added to HIV control wells to control for the solvent of pCCL223-12 peptide. The following day, IL-2 was added to a final concentration of 120 U/ml (360 U for ascites cells stimulation). Supernatant samples were collected after 2 or 7 days of culture. Cells were stimulated twice before being tested in ELISPOT assay. Cell culture supernatants from PBMCs or ascites cells stimulated with CCL22-3 or HIV peptide were analyzed for IFN-γ, TNF-α, IL-6, IL-10 and 1 L-1β using Bio-Plex Pro™ Human Chemokine assays from Bio-Rad. […] Wilcoxon-signed rank test was used for statistical analysis of IL-10 expression due to multiple zero values.

[5] = system: K562-A2 cells; experiment: 51Cr-release assay, HLA-A2-transfected K562 cells pulsed with peptide; assay type: cell-based
[6] = system: HLA-negative K562 cells; experiment: 51Cr-release assay, non-transfected K562 cells pulsed with peptide; assay type: cell-based
Procedure: Conventional ^51Cr-release assays for CTL-mediated cytotoxicity were carried out as described elsewhere (Andersen et al., 1999). Target cells were T2-cells (ATCC), HLA-A2^+ EBV transformed B-cell line (RPM16666), AML cells (UKE-1 and THP1) colon cancer cells (SW480), melanoma cell line (FM55-M2), Breast cancer cells MDA-MB231 with or without IFN-γ (100 U/m1) addition for 2 days prior to performing cytotoxicity assay.

[7] = system: PBMCs from cancer patients and healthy donors; experiment: IFNγ ELISPOT on PBMCs; assay type: cell-based, human
Procedure: In the present study the ELISPOT was performed according to the guidelines provided by CIP (http://cimt.eu/cimt/files/dl/cip guidelines.pdf). The ELISPOT assay was used to quantify peptide epitope specific effector cells that release cytokines (IFNγ, TNFα, IL-17A or IL-10) as described previously (Sorensen et al., 2012). In some experiments, PBMCs were stimulated once in vitro with peptide prior to analysis. In some experiments, 104 autologous DCs were added to the wells as antigen presenting cells. The spots were counted using the ImmunoSpot Series 2.0 Analyzer (C.T.L.—Europe, Bonn, Germany). In some experiments, CD4+ cells were isolated by EasySep human CD4^+ T cell enrichment kit (Stem Cell technologies, Grenoble, France) following manufacturers' instructions. This yielded highly pure cultures (>97% CD4+), which was confirmed by staining with surface antibodies as described below for intracellular cytokine staining (ICS) and flow cytometry (FCM).
PBMCs were placed in the bottom of ELISPOT plate (nitrocellulose bottomed 96-well plates by MultiScreen MAIP N45; Millipore) pre-coated with IFN-γ capture Ab (Mabtech) and the peptides were added at 5 μg/ml. PBMCs from each patient were set up in duplicates or triplicates for peptide and control stimulations. Cells were incubated in ELISPOT plates in the presence of an antigen for 14-16 hours after which they are washed off and secondary biotinylated Ab (Mabtech) was added. After 2h incubation unbound secondary antibody was washed off and streptavidin conjugated alkaline phosphatase (AP) (Mabtech) was added for 1 h. Next, unbound conjugated enzyme is washed off and the assay is developed by adding BCIP/NBT substrate (Mabtech). Developed ELISPOT plates were analysed on CTL ImmunoSpot S6 Ultimate-V analyzer using Immunospot software v5.1. Responses were calculated as the difference between average numbers of spots in wells stimulated with pCCL223-12 peptide and control wells. […]

[8] = system: CCL22; experiment: CCL22 ELISA of PBMC supernatants after peptide stimulation; assay type: cell-based, human
Procedure: Cell culture supernatants from PBMC, cancer cell lines and ascites cell cultures as well as siRNA transfected THP-1 cells were analyzed using Human CCL22/MDC DuoSet ELISA kit (R&D Systems) according to manufacturer's instructions.
PBMCs from healthy donors or cancer patients were thawed and rested for 4 hours in X-VIVO 15™ (Lonza) before being set up into 24-well plates with 2×10^6 cells/well in X-Vivo medium with 5% human serum. […] Appropriate amount of DMSO was added to HIV control wells to control for the solvent of pCCL223-12 peptide. The following day, IL-2 was added to a final concentration of 120 U/ml (360 U for ascites cells stimulation). Supernatant samples were collected after 2 or 7 days of culture. Cells were stimulated twice before being tested in ELISPOT assay.

[9] = system: CCL22-specific T cell cultures; experiment: Intracellular staining for IFNγ and TNFα after peptide stimulation; assay type: cell-based, human
Procedure: as §1
The cells were then stained for surface markers, then washed and permeabilized by using Fixation/Permeabilization and Permeabilization Buffer (eBioscience), according to manufacturer's instructions. Antibodies used: IFNγ-PE-Cy7, TNFa-APC, CD4-PerCP, CD8− FITC (all from BD Biosciences). Dead cells were stained using LIVE/DEAD® Fixable Near-IR Dead Cell Stain Kit according to manufacturer's instructions.

[10] = system: CCL22; experiment: CCL22 ELISA of ovarian cancer ascites cell supernatants after peptide stimulation; assay type: cell-based, human; conditions: ascites cells from ovarian cancer patients, IL-2, compared to HIV peptide
Procedure: Peripheral Blood Mononuclear Cells (PBMC) were collected from healthy individuals and cancer patients (melanoma, renal cell carcinoma and breast cancer patients). Blood samples were drawn a minimum of four weeks after termination of any kind of anti-cancer therapy. PBMC were isolated using Lymphoprep™ separation, HLA-typed and frozen in FCS with 10% DMSO. Fresh ovarian ascites was filtered with a 70 μm filter and the cells were isolated by centrifugation (1500 […], 5 min). If the ascites contained a high abundance of erythrocytes, they were removed by adding lysis-buffer (Ortho-Mune Lysing Solution) to the cells with incubation of 3-5 min. The lysis-buffer was quickly washed away and the cells cryopreserved in human serum with 10% DMSO at −140 degrees until use. The protocol was approved by the Scientific Ethics Committee for The Capital Region of Denmark and conducted in accordance with the provisions of the Declaration of Helsinki. Written informed consent from the patients was obtained before study entry.
Cell culture supernatants from PBMC, cancer cell lines and ascites cell cultures as well as siRNA transfected THP-1 cells were analyzed using Human CCL22/MDC DuoSet ELISA kit (R&D Systems) according to manufacturer's instructions. […]

MATLRVPLLVALVLLAVAIQTS (listed as Mus musculus) [mCCL22long, long murine CCL22 peptide]
IFNγ ELISPOT immune response of splenocytes of vaccinated mice [1]: increased immune response

MDRLQTALLVVLVLLAVALQAT (listed as Homo sapiens) [CCL22long, Polypeptide fragment of human CCL22]
lysis of peptide-pulsed T2 cells by CCL22-specific T cells [2]: recognized and killed
lysis of peptide-pulsed T2 cells by CCL22-specific T cells ([2]; listed as CCL22-signal peptide): lysed

RLQTALLVV (listed as Homo sapiens) [pCCL223-11, Polypeptide fragment of human CCL22]
T-cell avidity of pCCL223-12-specific T cells, peptide titration [2]: reacted towards both peptides
T-cell avidity of pCCL223-12-specific T cells, peptide titration ([2]; listed as CCL22-2): cross-react

RLQTALLVVL (listed as Homo sapiens) [pCCL223-12, Polypeptide fragment of human CCL22]
tetramer-positive cells ([3]; after five stimulations with peptide-pulsed autologous DCs or PBMCs): small but distinct population of tetramer-positive cells
tetramer-positive cells ([3]; after tetramer isolation and expansion): clear population
IL-10 in the supernatants after stimulation [4]: almost undetectable
IL-6 level compared to HIV control peptide ([4]; PBMCs from 11 cancer patients, one week of stimulation): significant increase
cultures with decreasing TNFα levels ([4]; PBMCs from cancer patients, one week of stimulation): 7 out of 11
cultures with decreasing TNFα levels ([4]; PBMCs from healthy donors, one week of stimulation): 7 out of 10
IFN-γ concentration versus control peptide ([4]; culture supernatants): no unambiguous differences
IL-1β concentration versus control peptide ([4]; culture supernatants): no unambiguous differences
IL-10 concentration versus control peptide ([4]; culture supernatants): no unambiguous differences
IL-1 induced after stimulation ([4]; data not shown): only one cancer patient and two healthy donors
recognition of HLA-A2-transfected K562 cells pulsed with peptide [5]: only recognized
recognition of HLA-A2-transfected K562 cells pulsed with peptide ([5]; listed as CCL22-3): recognized and killed
recognition of non-transfected K562 cells pulsed with peptide [6]: not recognized
spontaneous specific T-cell reactivity, IFN-γ ELISPOT ([7]; PBMCs from 13 cancer patients and 10 healthy individuals, peptide stimulation for two weeks with low-dose IL-2): detected in a number of melanoma patients and healthy donors
overall ELISPOT responses, healthy donors versus cancer patients ([7]; peptide stimulation for two weeks with low-dose IL-2): similar
specific responses by IFNγ ELISPOT ([7]; screen of PBMCs from cancer patients): Indications for specific responses
CCL22 concentration in supernatants compared to HIV control peptide ([8]; PBMCs from 11 healthy donors, one week after stimulation): significantly decreased
overall decrease in CCL22 concentration compared to HIV control peptide ([8]; PBMCs from 13 cancer patients, one week after stimulation): did not reach significance
CCL22 concentration compared to HIV control peptide ([8]; PBMCs from cancer patients with high CCL22 expression (≥5000 pg/mL)): significant decrease
CCL22 expression in supernatant compared to HIV control peptide ([8]; donor PBMCs with ELISPOT response, over one week, IL-2): lower
CD4+ T cell response (IFNγ, TNFα) to peptide stimulation [9]: no response detected
CD4+ T cell response (IFNγ, TNFα) to peptide stimulation ([9]; listed as CCL22-3): no reactivity
CD8+ T cell response (IFNγ, TNFα) to peptide stimulation ([9]; listed as CCL22-3): CD8+ (Left) and not CD4+ (Right) T cells react; also recorded: secreting IFN-γ and TNF-α
CD8+ cells secreting IFNγ and TNFα in response to peptide stimulation ([9]; tetramer-isolated, expanded culture): Around 30%
lysis of peptide-pulsed T2 cells by CCL22-specific T cells [2]: able to lyse
T-cell avidity of pCCL223-12-specific T cells, peptide titration [2]: highest avidity
T-cell avidity of pCCL223-12-specific T cells, peptide titration ([2]; listed as CCL22-3): recognized better
lysis of peptide-pulsed T2 cells by CCL22-specific T cells ([2]; listed as CCL22-3): lysed; also recorded: specifically recognize and lyse
overall CCL22 levels in supernatants [10]: decrease
overall CCL22 levels in supernatants ([10]; listed as CCL22-3): affected

VALVLLAVAI (listed as Mus musculus) [mCCL22short, short murine CCL22 peptide; part of mCCL22Long]
IFNγ ELISPOT immune response of splenocytes of vaccinated mice [1]: increased immune response

— patent publication US12551543B2, “Vaccine compositions comprising C—C motif chemokine 22 (CCL22) or fragments thereof” (IO BIOTECH APS, priority 2015, dated 2026)
